Results on 9 compounds are retold here after ChEMBL document CHEMBL5634154, “Drug repurposing and structure-based discovery of new PDE4 and PDE5 inhibitors” (Eur J Med Chem, 2023).

Experiment [1] concerns the target 3',5'-cyclic-AMP phosphodiesterase 4D (Homo sapiens, UniProt Q08499). In words: Inhibition of his-tagged recombinant human PDE4D catalytic domain (T86 to S413 residues) expressed in Escherichia coli BL21(DE3) using [3H]-cAMP as substrate incubated for 10 mins by SPA assay.
The target of experiment [2] is T1, Dual specificity calcium/calmodulin-dependent 3',5'-cyclic nucleotide phosphodiesterase 1A (Homo sapiens, UniProt P54750). In words: Inhibition of full-length recombinant human PDE1A using [3H]-cGMP as substrate at 1 uM incubated for 10 mins by SPA assay relative to control.
T1 sequence (P54750 whole entry, the tested form may be a part): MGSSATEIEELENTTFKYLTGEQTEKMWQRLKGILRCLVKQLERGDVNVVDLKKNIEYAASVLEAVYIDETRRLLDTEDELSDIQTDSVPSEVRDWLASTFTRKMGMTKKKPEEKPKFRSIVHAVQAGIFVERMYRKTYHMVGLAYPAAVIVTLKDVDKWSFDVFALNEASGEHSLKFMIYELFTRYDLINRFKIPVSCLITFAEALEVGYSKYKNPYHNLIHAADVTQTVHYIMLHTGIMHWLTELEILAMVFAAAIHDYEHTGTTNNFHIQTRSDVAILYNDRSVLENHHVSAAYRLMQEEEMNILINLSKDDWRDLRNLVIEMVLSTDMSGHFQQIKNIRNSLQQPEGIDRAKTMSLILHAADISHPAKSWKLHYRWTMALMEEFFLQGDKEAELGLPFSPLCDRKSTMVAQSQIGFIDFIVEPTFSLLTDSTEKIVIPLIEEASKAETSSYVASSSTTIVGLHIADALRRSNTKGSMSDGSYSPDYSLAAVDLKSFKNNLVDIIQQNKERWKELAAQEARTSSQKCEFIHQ
For experiment [3], the species on record is Homo sapiens. The experiment is described as follows: Selectivity index, ratio of IC50 for full-length recombinant human PDE6C using [3H]-cGMP as substrate to IC50 for his-tagged recombinant human PDE4D catalytic domain (T86 to S413 residues) expressed in Escherichia coli BL21(DE3) using [3H]-cAMP as substrate.
The target of experiment [4] is High affinity cGMP-specific 3',5'-cyclic phosphodiesterase 9A (Homo sapiens, UniProt O76083). The experiment is described as follows: Inhibition of his-tagged recombinant human PDE9A catalytic domain (P181 to K506 residues) expressed in Escherichia coli BL21(DE3) using [3H]-cGMP as substrate incubated for 10 mins by SPA assay.
Sequence of High affinity cGMP-specific 3',5'-cyclic phosphodiesterase 9A (O76083 whole entry, the tested form may be a part): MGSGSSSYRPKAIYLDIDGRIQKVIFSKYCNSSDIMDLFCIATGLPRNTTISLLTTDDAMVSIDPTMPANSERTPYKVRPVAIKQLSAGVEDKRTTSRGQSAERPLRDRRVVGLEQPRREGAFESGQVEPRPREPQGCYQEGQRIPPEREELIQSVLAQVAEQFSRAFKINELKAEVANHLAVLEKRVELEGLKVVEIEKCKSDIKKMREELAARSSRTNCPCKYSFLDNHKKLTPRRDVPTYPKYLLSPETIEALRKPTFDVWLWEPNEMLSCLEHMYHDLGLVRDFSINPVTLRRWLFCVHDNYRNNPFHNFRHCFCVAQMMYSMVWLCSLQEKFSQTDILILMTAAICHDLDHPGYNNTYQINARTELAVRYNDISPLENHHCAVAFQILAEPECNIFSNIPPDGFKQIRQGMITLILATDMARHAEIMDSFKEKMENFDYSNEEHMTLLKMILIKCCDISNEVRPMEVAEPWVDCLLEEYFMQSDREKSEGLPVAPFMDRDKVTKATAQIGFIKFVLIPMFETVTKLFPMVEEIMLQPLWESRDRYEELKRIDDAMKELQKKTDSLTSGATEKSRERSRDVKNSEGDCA
Experiment [5] concerns the target T2, cGMP-dependent 3',5'-cyclic phosphodiesterase (Homo sapiens, UniProt O00408). In words: Inhibition of full-length recombinant human PDE2A using [3H]-cGMP as substrate at 1 uM incubated for 10 mins by SPA assay relative to control.
Experiment [6] has as its target Cone cGMP-specific 3',5'-cyclic phosphodiesterase subunit alpha' (Homo sapiens, UniProt P51160). In words: Inhibition of full-length recombinant human PDE6C using [3H]-cGMP as substrate incubated for 10 mins by SPA assay.
The target of experiment [7] is High affinity 3',5'-cyclic-AMP phosphodiesterase 7A (Homo sapiens, UniProt Q13946). In words: Inhibition of his-tagged recombinant human PDE7A catalytic domain (S130 to S482 residues) expressed in Escherichia coli BL21(DE3) using [3H]-cAMP as substrate incubated for 10 mins by SPA assay.
Sequence of High affinity 3',5'-cyclic-AMP phosphodiesterase 7A (Q13946 whole entry, the tested form may be a part): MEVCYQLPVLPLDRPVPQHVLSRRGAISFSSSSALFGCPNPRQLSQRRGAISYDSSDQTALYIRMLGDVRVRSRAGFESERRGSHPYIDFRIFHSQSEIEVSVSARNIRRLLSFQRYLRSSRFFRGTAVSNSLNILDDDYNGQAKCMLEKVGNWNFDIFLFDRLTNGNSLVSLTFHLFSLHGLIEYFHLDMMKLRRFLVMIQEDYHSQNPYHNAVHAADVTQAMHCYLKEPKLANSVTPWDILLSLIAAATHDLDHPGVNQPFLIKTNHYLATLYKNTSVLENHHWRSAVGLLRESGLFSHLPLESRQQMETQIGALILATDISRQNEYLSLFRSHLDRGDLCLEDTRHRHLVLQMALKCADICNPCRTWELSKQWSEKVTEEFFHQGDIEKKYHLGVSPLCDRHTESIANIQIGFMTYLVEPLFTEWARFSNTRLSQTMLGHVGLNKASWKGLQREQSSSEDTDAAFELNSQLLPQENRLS
Experiment [8] addresses cGMP-inhibited 3',5'-cyclic phosphodiesterase 3A (Homo sapiens, UniProt Q14432). The experiment is described as follows: Inhibition of full-length recombinant human PDE3A using [3H]-cGMP as substrate incubated for 10 mins by SPA assay.
For experiment [9], the target named is cGMP-specific 3',5'-cyclic phosphodiesterase (Homo sapiens, UniProt O76074). In words: Inhibition of his-tagged recombinant human PDE5A catalytic domain (E535 to Q860 residues) expressed in Escherichia coli BL21(DE3) using [3H]-cGMP as substrate incubated for 10 mins by SPA assay.
For experiment [10], the target named is cAMP and cAMP-inhibited cGMP 3',5'-cyclic phosphodiesterase 10A (Homo sapiens, UniProt Q9Y233). The experiment is described as follows: Inhibition of his-tagged recombinant human PDE10A catalytic domain (S439 to A766 residues) expressed in Escherichia coli BL21(DE3) using [3H]-cAMP as substrate incubated for 10 mins by SPA assay.
Experiment [11] concerns the target Dual 3',5'-cyclic-AMP and -GMP phosphodiesterase 11A (Homo sapiens, UniProt Q9HCR9). In words: Inhibition of full-length recombinant human PDE11A using [3H]-cAMP as substrate incubated for 10 mins by SPA assay.
Experiment [12] has as its target High affinity cAMP-specific and IBMX-insensitive 3',5'-cyclic phosphodiesterase 8A (Homo sapiens, UniProt O60658). In words: Inhibition of full-length recombinant human PDE8A using [3H]-cAMP as substrate incubated for 10 mins by SPA assay.
In experiment [13] the target is T1, Dual specificity calcium/calmodulin-dependent 3',5'-cyclic nucleotide phosphodiesterase 1A. In words: Inhibition of full-length recombinant human PDE1A using [3H]-cGMP as substrate incubated for 10 mins by SPA assay.
Experiment [14] addresses T2, cGMP-dependent 3',5'-cyclic phosphodiesterase. The experiment is described as follows: Inhibition of full-length recombinant human PDE2A using [3H]-cGMP as substrate incubated for 10 mins by SPA assay.

Structures can show the parent of a compound that is named as a salt.

Sequence of High affinity cAMP-specific and IBMX-insensitive 3',5'-cyclic phosphodiesterase 8A (O60658 whole entry): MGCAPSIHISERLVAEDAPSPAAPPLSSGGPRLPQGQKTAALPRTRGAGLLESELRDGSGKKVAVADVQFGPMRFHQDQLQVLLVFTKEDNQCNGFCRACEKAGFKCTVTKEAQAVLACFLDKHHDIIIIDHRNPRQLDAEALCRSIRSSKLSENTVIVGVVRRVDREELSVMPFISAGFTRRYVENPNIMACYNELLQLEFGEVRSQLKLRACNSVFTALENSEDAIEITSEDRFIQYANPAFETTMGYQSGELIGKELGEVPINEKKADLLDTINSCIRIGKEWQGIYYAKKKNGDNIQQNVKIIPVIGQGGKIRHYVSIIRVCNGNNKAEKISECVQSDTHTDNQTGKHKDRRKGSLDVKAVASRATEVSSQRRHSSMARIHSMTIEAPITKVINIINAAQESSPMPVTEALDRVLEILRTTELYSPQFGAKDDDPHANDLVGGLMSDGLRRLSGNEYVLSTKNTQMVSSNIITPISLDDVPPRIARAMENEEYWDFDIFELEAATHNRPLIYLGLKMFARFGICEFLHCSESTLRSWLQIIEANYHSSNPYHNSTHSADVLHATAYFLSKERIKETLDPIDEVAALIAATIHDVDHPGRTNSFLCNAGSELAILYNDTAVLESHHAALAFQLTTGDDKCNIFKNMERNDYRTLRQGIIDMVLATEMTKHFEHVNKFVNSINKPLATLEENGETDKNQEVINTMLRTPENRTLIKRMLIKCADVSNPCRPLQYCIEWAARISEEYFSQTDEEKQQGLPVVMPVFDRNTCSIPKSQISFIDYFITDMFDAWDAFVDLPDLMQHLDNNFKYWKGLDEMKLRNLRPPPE
Sequence of 3',5'-cyclic-AMP phosphodiesterase 4D (Q08499 whole entry, the tested form may be a part): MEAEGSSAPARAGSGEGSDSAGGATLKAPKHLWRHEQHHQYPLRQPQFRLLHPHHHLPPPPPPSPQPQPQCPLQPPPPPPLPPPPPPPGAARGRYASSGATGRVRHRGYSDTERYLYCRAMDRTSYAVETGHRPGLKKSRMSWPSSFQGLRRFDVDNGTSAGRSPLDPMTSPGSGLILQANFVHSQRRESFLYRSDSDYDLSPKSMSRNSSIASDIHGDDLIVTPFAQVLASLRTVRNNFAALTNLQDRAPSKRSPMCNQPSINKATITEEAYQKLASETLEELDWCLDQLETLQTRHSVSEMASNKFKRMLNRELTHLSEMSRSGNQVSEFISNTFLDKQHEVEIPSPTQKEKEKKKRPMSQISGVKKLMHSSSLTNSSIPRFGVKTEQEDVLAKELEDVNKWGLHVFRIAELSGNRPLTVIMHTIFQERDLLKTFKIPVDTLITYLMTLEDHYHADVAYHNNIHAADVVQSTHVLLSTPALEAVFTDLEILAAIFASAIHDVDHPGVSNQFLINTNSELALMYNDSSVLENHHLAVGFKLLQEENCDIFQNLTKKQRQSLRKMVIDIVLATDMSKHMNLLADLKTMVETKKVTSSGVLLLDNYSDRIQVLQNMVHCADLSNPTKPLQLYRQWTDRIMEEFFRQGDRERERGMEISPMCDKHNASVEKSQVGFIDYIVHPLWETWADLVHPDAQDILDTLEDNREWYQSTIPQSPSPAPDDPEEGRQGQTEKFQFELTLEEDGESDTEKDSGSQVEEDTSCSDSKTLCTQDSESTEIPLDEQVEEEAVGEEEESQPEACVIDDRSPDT
Sequence of cGMP-inhibited 3',5'-cyclic phosphodiesterase 3A (Q14432 whole entry, the tested form may be a part): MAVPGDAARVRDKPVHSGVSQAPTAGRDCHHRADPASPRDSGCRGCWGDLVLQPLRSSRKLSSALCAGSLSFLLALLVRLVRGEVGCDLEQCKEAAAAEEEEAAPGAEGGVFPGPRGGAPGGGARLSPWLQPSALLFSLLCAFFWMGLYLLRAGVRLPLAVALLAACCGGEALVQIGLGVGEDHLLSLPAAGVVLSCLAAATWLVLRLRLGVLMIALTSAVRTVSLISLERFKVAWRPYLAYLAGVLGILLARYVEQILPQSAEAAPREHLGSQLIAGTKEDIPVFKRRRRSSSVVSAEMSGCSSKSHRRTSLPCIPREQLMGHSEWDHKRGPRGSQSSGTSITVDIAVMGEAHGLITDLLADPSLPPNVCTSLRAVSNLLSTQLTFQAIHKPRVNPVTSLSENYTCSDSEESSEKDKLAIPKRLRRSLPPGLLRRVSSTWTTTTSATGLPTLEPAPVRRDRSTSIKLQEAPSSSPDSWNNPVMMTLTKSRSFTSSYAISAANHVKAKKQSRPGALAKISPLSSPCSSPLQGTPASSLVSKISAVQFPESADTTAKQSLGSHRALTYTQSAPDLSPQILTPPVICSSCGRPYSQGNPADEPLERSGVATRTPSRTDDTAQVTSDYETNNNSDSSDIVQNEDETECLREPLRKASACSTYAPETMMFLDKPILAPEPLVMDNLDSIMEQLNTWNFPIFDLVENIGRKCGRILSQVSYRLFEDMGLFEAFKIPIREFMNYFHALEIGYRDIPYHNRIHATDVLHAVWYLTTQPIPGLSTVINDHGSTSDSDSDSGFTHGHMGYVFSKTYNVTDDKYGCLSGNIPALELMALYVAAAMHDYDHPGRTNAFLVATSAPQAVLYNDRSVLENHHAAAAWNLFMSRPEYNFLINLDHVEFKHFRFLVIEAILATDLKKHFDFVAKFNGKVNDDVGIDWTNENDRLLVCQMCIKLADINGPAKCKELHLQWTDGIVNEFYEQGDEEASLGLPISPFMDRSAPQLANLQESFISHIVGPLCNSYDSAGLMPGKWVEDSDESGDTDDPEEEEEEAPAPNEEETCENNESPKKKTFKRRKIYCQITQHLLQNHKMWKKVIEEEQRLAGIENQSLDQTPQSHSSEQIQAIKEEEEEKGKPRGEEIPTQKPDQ

As usually defined, the IC50 is the concentration that gives 50% inhibition. For the compound `Cn1cc(-c2ccncc2)c(-c2ccc(OCc3ccc4ccccc4n3)cc2)n1` [MARDEPODECT], the IC50 in [1] came to 1740 nM.
By inhibition is commonly meant the relative decrease from the control value, in per cent. As to `COc1ccc(CNc2nc(N(CCO)CCO)nc3c2cnn3C(C)C)cc1`, the figures for the inhibition in experiment [2] and in experiment [5] were 59.6% and 67.9%, respectively. The Ratio IC50 in [3] was 1. Further, the concentration for half-maximal inhibition (IC50) in [4] was over 10000 nM; in [6], 160 nM; in experiment [1] it was 2250 nM; in experiment [7] it was over 10000 nM; in [8] it was over 1000 nM; in [9], 120 nM. For the same compound, the 50% inhibitory concentration (IC50) in experiment [10] is over 1000 nM; in experiment [11], over 10000 nM; in experiment [12], over 10000 nM.
On to `O=C(O)c1ccc2c(c1)nc(Nc1cccc(Cl)c1)c1ccncc12` [SILMITASERTIB], for which the half-maximal inhibitory concentration (IC50) in experiment [1] came to 1000 nM.
Turning to `COc1ccc(CNc2nc(N(CCO)CCO)nc3c2[nH]c(=O)n3C(C)C)cc1`, the Ratio IC50 in [3] stood at 2. Moreover, the IC50 in experiment [4] was over 10000 nM; in [13], over 10000 nM; in [6], 90 nM; in experiment [1] it was 1780 nM; in [7], over 10000 nM; in experiment [8], over 10000 nM. The half-inhibitory concentration (IC50) in experiment [14] was over 1000 nM; in [9], 40 nM; in experiment [10] it was over 10000 nM; in [11], over 10000 nM; in experiment [12] it was over 10000 nM.
Take `COc1ncc(-c2ccc3nccc(-c4ccnnc4)c3c2)cc1NS(=O)(=O)c1ccc(F)cc1F` [OMIPALISIB]: the IC50 in experiment [1] was 1770 nM.
With `CCOc1ccn(-c2ccc(F)cc2)c(=O)c1C(=O)Nc1ccc(Oc2ccnc(N)c2Cl)c(F)c1` [BMS-777607], in [1], the IC50 amounted to 2460 nM.
For the compound `COc1ccc(CNc2nc(N(CCO)CCO)nc3c2ncn3C(C)C)cc1`, the IC50 in [4] was over 10000 nM; in [13], over 1000 nM; in experiment [1], 420 nM; in experiment [7] it was over 10000 nM; in experiment [8], over 10000 nM; in experiment [14] it was over 1000 nM. Further, the IC50 was 230 nM in [9], 1290 nM in experiment [10], over 1000 nM in experiment [11] and over 10000 nM in experiment [12].
Consider `CCOc1ccc(Cc2nccc3cc(OCC)c(OCC)cc23)cc1OCC` [ETHAVERINE HYDROCHLORIDE], for which the concentration for half-maximal inhibition (IC50) in experiment [1] is 410 nM.
Take `COc1ccc2c(c1)CC[C@H]1[C@H]3CC[C@H](NCCCCCCN4C(=O)C=CC4=O)[C@@]3(C)CC[C@@H]21`: the IC50 in experiment [1] was found to be 940 nM.
